The results in this text go back to article PMC3566143, “Pantothenamides Are Potent, On-Target Inhibitors of Plasmodium falciparum Growth When Serum Pantetheinase Is Inactivated” (PLoS ONE, 2013).

Read-outs that look alike come from different tables or passages of the source.

Series [1] concerns erythrocytic stage P. falciparum parasites (strain 3D7). In words: SYBR Green I-based in vitro growth assay (96 h). Particulars: for IC50: Plasmodium falciparum, 96 h. In kind it is cell-based, Plasmodium falciparum. The procedure:
Erythrocytic stage P. falciparum parasites (strain 3D7) were maintained within human erythrocytes in continuous culture essentially as described previously, [25]. P. falciparum-infected erythrocytes were routinely cultured in RPMI 1640 medium supplemented with 25 mM HEPES, 20 mM D-glucose, 200 µM hypoxanthine, 24 mg/L gentamycin and Albumax II (0.6%, w/v), which, hereafter is referred to as Albumax-complete RPMI. For several days prior to carrying out the assays testing the effect of compounds on the growth of P. falciparum in medium supplemented with human serum (instead of Albumax II), the parasites were cultured in the same medium mentioned above, except that human serum (10%, v/v, pooled from different blood donors) was used rather than Albumax II. This medium is hereafter referred to as human serum-complete RPMI.
The in vitro antiplasmodial activity of test compounds was determined using the malaria SYBR Green I-based fluorescence assay described by Smilkstein et al., with minor modifications. Briefly, P. falciparum-infected erythrocytes were incubated in culture medium containing two-fold dilutions of the test compounds in 96-well microtiter plates. Assays were initiated with ring-stage P. falciparum-infected erythrocytes at a hematocrit and parasitemia of 1%. Wells containing infected erythrocytes in the presence of chloroquine (0.25–2 µM) served as zero growth controls and wells containing infected erythrocytes in the absence of chloroquine or test compounds served as 100% parasite growth controls. Plates were incubated at 37°C under an atmosphere of 96% nitrogen, 3% carbon dioxide and 1% oxygen for 96 h, before 100 µL from each well was mixed with 100 µL of SYBR Safe DNA gel stain (0.2 µL/mL) in 20 mM Tris, pH 7.5, 5 mM ethylenediaminetetraacetic acid (EDTA), 0.008% (w/v) saponin, 0.08% (v/v) Triton X-100, in a second 96-well microtitre plate. Fluorescence was measured using a FLUOstar OPTIMA multidetection microplate reader from BMG LABTECH with excitation and emission wavelengths of 490 and 520 nm, respectively. The 50% inhibitory concentration (IC50) of each test compound under each test condition was calculated by fitting the data to a sigmoidal curve (typically y = a/(1+ (x/x0)^b) using nonlinear least squares regression (SigmaPlot, Systat Software) and averaging the IC50 estimates from independent experiments.
The antiplasmodial activity of test compounds was assessed in media that had been subjected to different pre-incubations. “Fresh” medium refers to medium that was stored for a maximum of 48 h at 4°C, and incubated at 37°C for a maximum of 1 h, prior to use. “Aged” medium refers to medium that was stored for a minimum of one week at 4°C and incubated intermittently at 37°C, or medium incubated continuously at 37°C for 40 h soon after preparation. As indicated at the relevant positions within the “Results” section, for some experiments the fresh medium used was, more specifically, medium used immediately following preparation, and the aged medium used was, more specifically, medium that was incubated at 37°C for 40 h immediately prior to use.

Series [2] addresses T1, recombinant human pantetheinase (Vanin-1) (Homo sapiens, UniProt O95497).
T1 construct: purchased Novoprotein Scientific Inc. (Short Hills, New Jersey, USA)
T1 sequence (O95497 22-513): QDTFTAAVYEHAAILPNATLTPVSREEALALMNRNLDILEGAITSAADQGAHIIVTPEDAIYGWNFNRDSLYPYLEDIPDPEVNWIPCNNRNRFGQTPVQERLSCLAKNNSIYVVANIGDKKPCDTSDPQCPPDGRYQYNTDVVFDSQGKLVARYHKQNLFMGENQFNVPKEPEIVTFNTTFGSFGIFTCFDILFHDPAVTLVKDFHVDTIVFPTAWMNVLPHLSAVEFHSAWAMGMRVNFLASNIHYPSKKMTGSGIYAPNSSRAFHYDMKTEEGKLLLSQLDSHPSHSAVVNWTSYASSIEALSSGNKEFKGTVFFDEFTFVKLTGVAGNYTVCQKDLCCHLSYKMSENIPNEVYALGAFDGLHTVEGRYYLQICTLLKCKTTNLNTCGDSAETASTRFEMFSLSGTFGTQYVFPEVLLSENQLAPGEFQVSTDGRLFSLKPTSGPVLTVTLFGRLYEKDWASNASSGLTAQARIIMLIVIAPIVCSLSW
Description: fluorescamine-based pantothenamide hydrolysis assay with recombinant pantetheinase. Type of series: in vitro ADME. Conditions: 200 µM compound, same conditions with water instead of enzyme. On the procedure: (§1) Hydrolysis of compound 12 to pantothenate and isobutylamine was measured using a modification of a fluorescence-based assay described previously for the measurement of N-acetyl-1-D-myo-inosityl-2-amino-2-deoxy-α-D-glucopyranoside deacetylase activity, [31]. The assay utilizes fluorescamine (4-phenylspiro-[furan-2(3H),1-phthalan]-3,3′-dione; a non-fluorescent molecule that reacts with primary amines to form a fluorescent product) for the detection of primary amines. Briefly, recombinant human pantetheinase (at a final concentration of 100 ng/mL), Albumax II (at a final concentration 0.6%, w/v), or an equivalent volume of water, was added to solutions (at 37°C) of 100 mM potassium phosphate, pH 7.5, 0.5 mM dithiothreitol, 0.01% (w/v) bovine serum albumin, 0.1% (v/v) DMSO, with or without pantothenamide (at a final concentration of 200 µM). At the appropriate time points, aliquots (30 µL) of the reaction mixtures were removed in duplicate and mixed with 10 µL 20% (v/v) trichloroacetic acid to terminate the reaction. […] The plate was then incubated at 37°C for 10 min before fluorescence was measured using a FLUOstar OPTIMA multidetection microplate reader from BMG LABTECH with excitation and emission wavelengths of 390 and 485 nm, respectively. The fluorescence detected was converted to the corresponding isobutylamine concentration using an isobutylamine standard curve. […]

Series [3] deals with Albumax II. In words: fluorescamine-based pantothenamide hydrolysis assay with Albumax II. Particulars: 200 µM compound, Albumax II 0.6% (w/v), 37°C. Type of series: in vitro ADME, bovine. The procedure: as §1

As to `CC(C)CNC(=O)CCNC(=O)[C@H](O)C(C)(C)CO` [Compound 12], the IC50 came to 133 ± 12 µM in series [1] (3D7, 96 h, fresh Albumax-complete RPMI, 1 µM pantothenate, read-out: IC50 against P. falciparum, fresh medium, 1 μM pantothenate); 1.1 ± 0.1 µM in series [1] (3D7, aged Albumax-complete RPMI (37°C for 40 h), 1 µM pantothenate, read-out: IC50 against P. falciparum, aged medium, 1 μM pantothenate); 22 ± 10 µM in series [1] (3D7, human serum (10%, v/v) medium incubated at 37°C for 40 h, read-out: IC50 against P. falciparum in aged human serum-complete RPMI). Moreover, the “increase in potency after second ageing of Albumax II-supplemented aged medium” value in series [1] (aged + Albumax II + 40 h at 37°C versus aged + fresh Albumax II) is listed as above 65 fold. Further, in series [1] (aged Albumax-complete RPMI + 100 ng/mL recombinant human pantetheinase added at start of assay), the “effect of recombinant human pantetheinase on antiplasmodial effect in aged medium” value was “alleviated the antiplasmodial effect”. Also, the “fold-increase in IC50 following supplementation with 100 µM pantothenate, aged medium” value in series [1] (aged Albumax-complete RPMI, IC50 at 100 µM pantothenate / IC50 at 1 µM pantothenate) was found to be 21±1 times. Moreover, the “effect on parasite growth in aged Albumax-complete RPMI with additional Albumax II” value in series [1] (aged medium + additional Albumax II (0.6%, w/v) immediately prior to assay, 200 µM) is “little-to-no effect on parasite growth”. Further, in series [1] (aged medium, 200 µM), the “effect on parasite growth at 200 µM in aged Albumax-complete RPMI” value was “inhibits parasite growth completely”. The “fold-increase in IC50 following supplementation with 100 µM pantothenate, fresh medium” value in series [1] (fresh Albumax-complete RPMI, IC50 at 100 µM pantothenate / IC50 at 1 µM pantothenate) is 1.3±0.2 times. Besides, the “effect on parasite growth in fresh human serum-complete RPMI” value in series [1] (human serum (10%, v/v), fresh medium, up to 200 µM (highest concentration tested)) was “little-to-no effect on parasite growth”. In addition, the “hydrolysis in the absence of pantetheinase” value in series [2] is given as “not observed”. For the same compound, the “time to completion of hydrolysis” value in series [3] is recorded as at most 24 h. Besides, the “fraction of pantothenamide hydrolyzed during 6 h incubation” value in series [3] (6 h) is “over one third”.

By IC50 is commonly meant the concentration that inhibits the measured activity by half.
